Among the data in patent US20210094919A1, “KRAS MUTANT PROTEIN INHIBITORS” (Jacobio Pharmaceuticals Co., Ltd., priority 2019, published 2021) are IC50 values, retold here.

Molecules are shown by their SMILES.

For the experiment, the target named is T1, HIS-KRAS (G12C, aa 2-185) (Homo sapiens, UniProt P01116, G12C).
T1 construct: HIS-KRAS (G12C, aa 2-185, Sino biological); purchased Sino biological
Put plainly: SOS1 catalyzed nucleotide exchange assay (TR-FRET). In kind it is biochemical. Particulars: GDP-loaded HIS-KRAS (G12C) pre-incubated with compound 1 hour, SOS1 ExD and BODIPY FL GTP added, 4 hours at 25° C. On the procedure: HIS-KRAS (G12C, aa 2-185, Sino biological) was diluted to 5 μM in EDTA buffer (20 mM HEPES, pH 7.4, 50 mM NaCl, 10 mM EDTA, 0.01% (v/v) Tween-20) and incubated for 30 min at 25° C. The EDTA pretreated HIS-KRAS (G12C) was diluted to 12 nM in assay buffer (25 mM HEPES, pH 7.4, 120 mM NaCl, 5 mM MgCl2, 1 mM DTT, 0.01% (v/v) Tween 20, 0.1% (w/v) BSA) containing 120 nM GDP (Sigma) and MAb Anti 6HIS-Tb cryptate Gold (Cisbio) and incubated for 1 hour at 25° C. to prepare GDP-loaded HIS-KRAS (G12C). The GDP-loaded HIS-KRAS (G12C) was pre-incubation with diluted compounds in a 384-well plate (Greiner) for 1 hour, then purified SOS1 ExD (Flag tag, aa 564-1049) and BODIPY™ FL GTP (Invitrogen) were added to the assay wells (Final concentration: 3 nM HIS-KRAS (G12C), 2 μM SOS1 ExD, 80 nM BODIPY™ FL GTP, 21 ng/mL MAb Anti 6HIS-Tb cryptate Gold) and incubated for 4 hours at 25° C. TR-FRET signals were then read on Tecan Spark multimode microplate reader. The parameters were F486: Excitation 340 (35) nm, Emission 486 (10) nm, Lag time 100 las, Integration time 200 las; F515: Excitation 340 (35) nm, Emission 515 (10) nm, Lag time 100 las, Integration time 200 las. TR-FRET ratios for each individual wells were calculated by equation: TR-FRET ratio=(Signal F515/Signal F486)*10000. Then the data were analyzed using a 4-parameter logistic model to calculate IC50 values.

T1 sequence (P01116 2-185 isoform P01116-2 G12C): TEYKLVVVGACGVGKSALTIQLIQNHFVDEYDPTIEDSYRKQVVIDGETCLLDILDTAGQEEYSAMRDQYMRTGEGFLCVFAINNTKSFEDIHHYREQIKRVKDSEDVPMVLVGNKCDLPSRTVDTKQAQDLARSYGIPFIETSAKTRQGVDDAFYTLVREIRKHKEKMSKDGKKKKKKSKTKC

One may read the IC50 as the concentration that gives 50% inhibition. Turning to `C=CC(=O)N1CCN(c2c(C#N)c(OC[C@@H]3CCCN3C)nc3c2CCN(c2cccc4cccc(C)c24)C3)CC1` [Compound 2, (S)-4-(4-acryloylpiperazin-1-yl)-7-(8-methylnaphthalen-1-yl)-2-((1-methylpyrrolidin-2-yl)methoxy)-5,6,7,8-tetrahydro-1,7-naphthyridine-3-carbonitrile], the IC50 is > 1000 nM.
With `C=CC(=O)N1CCN(c2c(C#N)c(OC[C@@H]3CCCN3C)nc3c2CCN(c2cccc4cccc(C)c24)C3)C[C@H]1C` [Compound 5, 4-((R)-4-acryloyl-3-methylpiperazin-1-yl)-7-(8-methylnaphthalen-1-yl)-2-(((S)-1-methylpyrrolidin-2-yl)methoxy)-5,6,7,8-tetrahydro-1,7-naphthyridine-3-carbonitrile] the figure was > 1000 nM; with `C=CC(=O)N1CCN(c2c(C#N)c(OC[C@@H]3CCCN3C)nc3c2CCN(c2cccc4cccc(C)c24)C3)C[C@@H]1C` [Compound 6, 4-((S)-4-acryloyl-3-methylpiperazin-1-yl)-7-(8-methylnaphthalen-1-yl)-2-(((S)-1-methylpyrrolidin-2-yl)methoxy)-5,6,7,8-tetrahydro-1,7-naphthyridine-3-carbonitrile], > 1000 nM; with `C=CC(=O)N1CC(Nc2c(C#N)c(OC[C@@H]3CCCN3C)nc3c2CCN(c2cccc4cccc(C)c24)C3)C1` [Compound 4, (S)-4-((1-acryloylazetidin-3-yl)amino)-7-(8-methylnaphthalen-1-yl)-2-((1-methylpyrrolidin-2-yl)methoxy)-5,6,7,8-tetrahydro-1,7-naphthyridine-3-carbonitrile], > 1000 nM.
With `C=CC(=O)N1CCN(c2c(C#N)c(OC[C@@H]3CCCN3C)nc3c2CCN(c2cccc4cccc(C)c24)C3)CC1CC#N` (stereo partly drawn) [Compound 1, 4-(4-acryloyl-3-(cyanomethyl)piperazin-1-yl)-7-(8-methylnaphthalen-1-yl)-2-(((S)-1-methylpyrrolidin-2-yl)methoxy)-5,6,7,8-tetrahydro-1,7-naphthyridine-3-carbonitrile] the figure was 53.1 nM.
With `C=CC(=O)N1[C@H](C)CN(c2c(C#N)c(OC[C@@H]3CCCN3C)nc3c2CCN(c2cccc4cccc(C)c24)C3)C[C@@H]1C` [Compound 3, 4-((3S,5R)-4-acryloyl-3,5-dimethylpiperazin-1-yl)-7-(8-methylnaphthalen-1-yl)-2-(((S)-1-methylpyrrolidin-2-yl)methoxy)-5,6,7,8-tetrahydro-1,7-naphthyridine-3-carbonitrile] the figure was > 1000 nM.
